In general, IC50 refers to the point on the concentration scale where inhibition reaches its midpoint. Lower therefore signals greater potency in that assay. As usually defined, the tissue uptake is the share of the injected amount in each gram of the tissue.

One data set concerns U-87 MG cells. In kind it is binding, human. Conditions: 4 h. As to the method: As the concentration of unlabeled DOTA-EB-cRGDfK or DOTA-cRGDfK increased, the binding ratio of ^111In-DOTA-EB-cRGDfK decreased, indicating the presence of specific binding affinity (Figure 2C).
U-87 MG cells were seeded into 24-well plates at a density of 1 × 10^5 cells per well and incubated overnight. Different concentrations ranging from 0.01 nM to 5000 nM of DOTA-EB-cRGDfK or DOTA-cRGDfK were added to the wells. U-87 MG cells were then incubated with 10 nM ^111In-DOTA-EB-cRGDfK for 4 h at 37 °C. Cells were washed once with 0.5 mL PBS and were removed from each well by 0.25% trypsin-EDTA (Gibco, Gaithersburg, MD, USA). The cell suspensions were collected and measured by using a PerkinElmer 2480 Automatic Gamma Counter (PerkinElmer, Waltham, MA, USA). Binding results were expressed as a percent of total counts, and IC50 values were calculated using SigmaPlot 12.5 (Systat Software, Inc., San Jose, CA, USA).

Another data set deals with tumor. Details: method as in PMID 25621196. Conditions: cited from earlier work.
Data set [1] can be described thus: NanoSPECT/CT imaging with image quantification. In kind it is in vivo. The conditions noted are these: female, NOD/SCID, mouse, tumor, iv, 2.5 ug, total radioactivity; 0.5 h after tail-vein injection (about 18.5 MBq, 2.5 μg); U-87 MG xenografts in mice; nanoSPECT/CT ROI. The method, then:
Figure 3 presented nanoSPECT/CT images of U-87 MG xenografts in mice administered with different radiolabeled peptides. […] Comparing with ^111In-DOTA-EB-cRGDfK, the highest tumor uptake of ^111In-DOTA-cRGDfK was 2.0 ± 0.5% ID/g at 0.5 h. […] The ratios of tumor to muscle and tumor to liver were 1.8 ± 0.7 and 0.5 ± 0.1 at 0.5 h, respectively. The highest tumor uptake of ^111In-DOTA-EB was 10.3 ± 4.4% ID/g at 24 h, and it slightly dropped to 9.97 ± 4.37% ID/g at 72 h.
The human glioblastoma cell line, U-87 MG (stock number: BCRC 60360), was obtained from Bioresource Collection and Research Center. Cells were grown in Minimum Essential Medium (MEM; Gibco, Grand Island, NY, USA) supplemented with 10% (v/v) fetal bovine serum (FBS; Gibco, Gaithersburg, MD, USA) and 1% antibiotic antimycotic solution (Sigma-Aldrich, St. Louis, MO, USA) at 37 °C under 5% CO2 incubation. Female non-obese diabetic, severe combined immunodeficiency (NOD/SCID) mice were obtained from BioLASCO Taiwan Co., Ltd. The 6-week-old mice were housed in a 12 h light cycle at 22 °C, with food and water provided ad libitum. […]
The procedure for nanoSPECT/CT imaging has been previously described. […] The image quantification of the region of interest (ROI) was acquired by PMOD v. […]

For data set [2] the following is noted: mouse, in vivo, iv.
Method: Blood samples (10 μL) were collected by heart puncture under 2% isoflurane anesthesia at 0.083, 0.5, 2, 4, 24, 48, 72, 96, and 168 h. The radioactivity of blood samples was measured by PerkinElmer 2480 gamma counter and expressed as the percentage injected dose per gram (% ID/g). Data was used to determine the pharmacokinetic parameters by noncompartmental analysis (NCA) and the analysis software was WinNonlin 7.0 (Pharsight Corporation, Mountain View, CA, USA). Parameters, including terminal half-life (T1/2λz), maximum concentration (Cmax), total body clearance (Cl), area under curve (AUC), and mean residence time (MRT) were determined. Pharmacokinetic parameters associated with the terminal phase were calculated using the best-fit method to estimate the terminal half-life.

For the compound `N=C(N)NCCC[C@@H]1NC(=O)[C@H](CCCCNC(=O)CN2CCN(CC(=O)O)CCN(CC(=O)O)CCN(CC(=O)O)CC2)NC(=O)[C@@H](Cc2ccccc2)NC(=O)[C@H](CC(=O)O)NC(=O)CNC1=O` [DOTA-cRGDfK], in the data set on U-87 MG cells, half-maximal inhibition (IC50) was put at 35.2 nM.

Take `N[C@@H](Cc1ccc(B(O)O)cc1[18F])C(=O)O` [^18F-BPA]: the Tumor uptake with tumor is 1.44 ± 0.44 % ID/g.

Take `N=C(N)NCCC[C@@H]1NC(=O)[C@H](CCCCNC(=O)CN2CCN(CC(=O)O)CCN(CC(=O)O)CCN(CC(=O)O)CC2)NC(=O)[C@@H](Cc2ccccc2)NC(=O)[C@H](CC(=O)O)NC(=O)CNC1=O` [^111In-DOTA-cRGDfK, metal not drawn]: the tissue uptake at 0.5 h in data set [1] was found to be 2 ± 0.5 %ID/g. Also, in data set [2], the “Cl (total body clearance)” value was determined as 12.9 mL/h, the “Maximum concentration (Cmax) in blood” value was 3.74 % ID/g and the “T1/2λz (terminal half-life)” value is on record as 17.2 h.

The values are drawn from publication PMC8196871, “Molecular Imaging and Preclinical Studies of Radiolabeled Long-Term RGD Peptides in U-87 MG Tumor-Bearing Mice” (International Journal of Molecular Sciences, 2021).
